PubChem BioAssay (NCI)
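Method: 48-hour compound exposure of cells in 96-well plates, five concentrations, linear interpolation of endpoints. At the TGI there is no net growth.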

Columns and labels:
Assay in all cases: NCI anticancer screen, dose series, 48 h
CCRF-CEM leukemia = tested on: CCRF-CEM leukemia
HL-60(TB) leukemia = tested on: HL-60(TB) leukemia
SNB-75 CNS = tested on: SNB-75 CNS
ACHN renal = tested on: ACHN renal
OVCAR-8 ovarian = tested on: OVCAR-8 ovarian
U251 CNS = tested on: U251 CNS
786-0 renal = tested on: 786-0 renal
HT29 colon = tested on: HT29 colon
SK-MEL-5 melanoma = tested on: SK-MEL-5 melanoma
OVCAR-5 ovarian = tested on: OVCAR-5 ovarian
DU-145 prostate = tested on: DU-145 prostate
LOX IMVI melanoma = tested on: LOX IMVI melanoma
COLO 205 colon = tested on: COLO 205 colon
A549 NSCLC = tested on: A549 NSCLC
NCI-H522 lung = tested on: NCI-H522 lung
T-47D breast = tested on: T-47D breast
MDA-MB-231 breast = tested on: MDA-MB-231 breast
HOP-92 NSCLC = tested on: HOP-92 NSCLC
HCT-15 colon = tested on: HCT-15 colon
HCT-116 colon = tested on: HCT-116 colon
NCI-H226 lung = tested on: NCI-H226 lung
CAKI-1 renal = tested on: CAKI-1 renal
SF-539 CNS = tested on: SF-539 CNS
HOP-62 NSCLC = tested on: HOP-62 NSCLC
MOLT-4 leukemia = tested on: MOLT-4 leukemia
SR leukemia = tested on: SR leukemia
M14 melanoma = tested on: M14 melanoma
EKVX NSCLC = tested on: EKVX NSCLC
SN12C renal = tested on: SN12C renal
SF-295 CNS = tested on: SF-295 CNS
MDA-MB-435 = tested on: MDA-MB-435
PC-3 prostate = tested on: PC-3 prostate
SW-620 colon = tested on: SW-620 colon
UACC-62 melanoma = tested on: UACC-62 melanoma
SK-MEL-2 melanoma = tested on: SK-MEL-2 melanoma
MCF7 breast = tested on: MCF7 breast
SNB-19 CNS = tested on: SNB-19 CNS
A498 renal = tested on: A498 renal
MALME-3M melanoma = tested on: MALME-3M melanoma
SK-MEL-28 melanoma = tested on: SK-MEL-28 melanoma
K-562 leukemia = tested on: K-562 leukemia
NCI-H460 lung = tested on: NCI-H460 lung
UACC-257 melanoma = tested on: UACC-257 melanoma
NCI/ADR-RES ovarian = tested on: NCI/ADR-RES ovarian
HCC-2998 colon = tested on: HCC-2998 colon
IGROV1 ovarian = tested on: IGROV1 ovarian
UO-31 renal = tested on: UO-31 renal
OVCAR-3 ovarian = tested on: OVCAR-3 ovarian
KM12 colon = tested on: KM12 colon
BT-549 breast = tested on: BT-549 breast
OVCAR-4 ovarian = tested on: OVCAR-4 ovarian
NCI-H23 lung = tested on: NCI-H23 lung
MDA-N = tested on: MDA-N
SF-268 CNS = tested on: SF-268 CNS
HS 578T breast = tested on: HS 578T breast
TK-10 renal = tested on: TK-10 renal
SK-OV-3 ovarian = tested on: SK-OV-3 ovarian
RXF 393 renal = tested on: RXF 393 renal
RPMI-8226 leukemia = tested on: RPMI-8226 leukemia

Work on COc1ccc(-c2nc3c(C(=O)NCCN(C)C)cccc3c3ccccc23)cc1 yielded a TGI (CCRF-CEM leukemia) of 10.3 µM, a TGI (HL-60(TB) leukemia) of 7 µM and a TGI (SNB-75 CNS) of 17.6 µM. For the same compound, the TGI (ACHN renal) was 12.8 µM, the TGI (OVCAR-8 ovarian) was 20.6 µM and the TGI (U251 CNS) was 10.1 µM. For the same compound, the TGI (786-0 renal) was 6.86 µM, the TGI (HT29 colon) was 7.78 µM and the TGI (SK-MEL-5 melanoma) was 3.3 µM. The TGI (OVCAR-5 ovarian) was 18.2 µM, the TGI (DU-145 prostate) was 17.4 µM and the TGI (LOX IMVI melanoma) was 2.94 µM. For the same compound, the TGI (COLO 205 colon) was 4.51 µM, the TGI (A549 NSCLC) was 12.6 µM and the TGI (NCI-H522 lung) was 8.82 µM. The TGI (T-47D breast) was 29.7 µM, the TGI (MDA-MB-231 breast) was 12.2 µM and the TGI (HOP-92 NSCLC) was 12.3 µM. The TGI (HCT-15 colon) was 9.46 µM, the TGI (HCT-116 colon) was 11.6 µM and the TGI (NCI-H226 lung) was 17.1 µM. For the same compound, the TGI (CAKI-1 renal) was 7.05 µM, the TGI (SF-539 CNS) was 4.87 µM and the TGI (HOP-62 NSCLC) was 13.3 µM. It also gave a TGI (MOLT-4 leukemia) of 6.55 µM, a TGI (SR leukemia) of 6.96 µM and a TGI (M14 melanoma) of 3.93 µM. It also gave a TGI (EKVX NSCLC) of 19.6 µM, a TGI (SN12C renal) of 16.9 µM and a TGI (SF-295 CNS) of 4.83 µM. It also gave a TGI (MDA-MB-435) of 5.16 µM, a TGI (PC-3 prostate) of 13.7 µM and a TGI (SW-620 colon) of 14.5 µM. For the same compound, the TGI (UACC-62 melanoma) was 4.66 µM, the TGI (SK-MEL-2 melanoma) was 18.4 µM and the TGI (MCF7 breast) was 8.65 µM. It also gave a TGI (SNB-19 CNS) of 11.7 µM, a TGI (A498 renal) of 8.96 µM and a TGI (MALME-3M melanoma) of 8.7 µM. The TGI (SK-MEL-28 melanoma) was 3.71 µM, the TGI (K-562 leukemia) was 4.68 µM and the TGI (NCI-H460 lung) was 10.9 µM. For the same compound, the TGI (UACC-257 melanoma) was 3.56 µM, the TGI (NCI/ADR-RES ovarian) was 45.4 µM and the TGI (HCC-2998 colon) was 3.85 µM. It also gave a TGI (IGROV1 ovarian) of 14.6 µM, a TGI (UO-31 renal) of 5.16 µM and a TGI (OVCAR-3 ovarian) of 16.6 µM. It also gave a TGI (KM12 colon) of 14.9 µM, a TGI (BT-549 breast) of 22.3 µM and a TGI (OVCAR-4 ovarian) of 12.5 µM. It also gave a TGI (NCI-H23 lung) of 19.6 µM, a TGI (MDA-N) of 5.45 µM and a TGI (SF-268 CNS) of 24.5 µM. The TGI (HS 578T breast) was 28.9 µM and the TGI (TK-10 renal) was 19.8 µM.

For O=[N+]([O-])/C(Cl)=C/C(=C1/Nc2ccccc2O1)[N+](=O)[O-], the TGI (CCRF-CEM leukemia) was 53.6 µM, the TGI (HL-60(TB) leukemia) was 37.7 µM and the TGI (SNB-75 CNS) was 35.5 µM. It also gave a TGI (ACHN renal) of 37.5 µM, a TGI (OVCAR-8 ovarian) of 40.5 µM and a TGI (U251 CNS) of 28.7 µM. For the same compound, the TGI (786-0 renal) was > 100 µM, the TGI (HT29 colon) was > 100 µM and the TGI (SK-MEL-5 melanoma) was 40.5 µM. It also gave a TGI (DU-145 prostate) of 41.6 µM, a TGI (LOX IMVI melanoma) of 23.1 µM and a TGI (COLO 205 colon) of 45.1 µM. The TGI (A549 NSCLC) was > 100 µM, the TGI (NCI-H522 lung) was 27 µM and the TGI (T-47D breast) was > 100 µM. The TGI (MDA-MB-231 breast) was 76.4 µM, the TGI (HOP-92 NSCLC) was 63.7 µM and the TGI (HCT-15 colon) was 42 µM. For the same compound, the TGI (HCT-116 colon) was 28.6 µM, the TGI (SK-OV-3 ovarian) was 75.7 µM and the TGI (NCI-H226 lung) was 79.3 µM. The TGI (CAKI-1 renal) was 45.9 µM, the TGI (SF-539 CNS) was 59.4 µM and the TGI (HOP-62 NSCLC) was 76.6 µM. It also gave a TGI (MOLT-4 leukemia) of 87.2 µM, a TGI (RXF 393 renal) of 38.6 µM and a TGI (SR leukemia) of 47.1 µM. The TGI (M14 melanoma) was 51.1 µM, the TGI (EKVX NSCLC) was 40.5 µM and the TGI (SN12C renal) was > 100 µM. It also gave a TGI (SF-295 CNS) of 73.7 µM, a TGI (MDA-MB-435) of 32 µM and a TGI (PC-3 prostate) of 32.3 µM. For the same compound, the TGI (SW-620 colon) was 72.3 µM, the TGI (UACC-62 melanoma) was 56.7 µM and the TGI (MCF7 breast) was > 100 µM. It also gave a TGI (SNB-19 CNS) of 45.5 µM, a TGI (A498 renal) of 38.3 µM and a TGI (MALME-3M melanoma) of 29.8 µM. The TGI (SK-MEL-28 melanoma) was 35.9 µM, the TGI (K-562 leukemia) was 87.1 µM and the TGI (NCI-H460 lung) was 81 µM. For the same compound, the TGI (UACC-257 melanoma) was 25.1 µM, the TGI (NCI/ADR-RES ovarian) was 73.2 µM and the TGI (HCC-2998 colon) was 28 µM. For the same compound, the TGI (IGROV1 ovarian) was > 100 µM, the TGI (UO-31 renal) was 35.8 µM and the TGI (OVCAR-3 ovarian) was 57.5 µM. For the same compound, the TGI (KM12 colon) was 36.2 µM, the TGI (BT-549 breast) was 52 µM and the TGI (OVCAR-4 ovarian) was 84.4 µM. It also gave a TGI (NCI-H23 lung) of 54.4 µM, a TGI (MDA-N) of 46 µM and a TGI (SF-268 CNS) of 54.4 µM. For the same compound, the TGI (RPMI-8226 leukemia) was 66.1 µM, the TGI (HS 578T breast) was 84.1 µM and the TGI (TK-10 renal) was > 100 µM.
